Experimental data reported in BindingDB's records for doi:10.1021/jm970814z (University of Sydney, 1998).
Values joined by “and” are separate entries in the source; they are usually repeats but may differ in a detail not shown here. Equal values may be shown once.

Molecular target: CAD protein (Mesocricetus auratus)
Test: Compound ability to inhibit the catalytic activity of hamster Dihydroorotase (DHOase) expressed in Escherichia coli.

| SMILES | Ki |
| --- | --- |
| O=C1CP(O)(S)=C[C@@H](C(=O)O)N1 (stereo partly drawn) [(2R,4S)-4-Mercapto-4,6-dioxo-4lambda*5*-[1,4]azaphosphinane-2-carboxylic acid] | 2.9 µM and 3.1 µM |
| O=C1CP(O)(O)=CC(C(=O)O)N1 (configuration not stated) [4-Hydroxy-4,6-dioxo-4lambda*5*-[1,4]azaphosphinane-2-carboxylic acid] | 4 µM |
